Experimental data published in patent EP4467640A1, “MICROORGANISM AND METHOD FOR THE IMPROVED PRODUCTION OF CYSTEINE AND/OR DERIVATIVES THEREOF” (Metabolic Explorer, priority 2023, dated 2024).

Assays:
[1] = target: O-phosphoserine sulfhydrylase from Mycolicibacterium smegmatis (OPSSmsm), SEQ ID NO: 104 (Mycolicibacterium smegmatis, UniProt A0R1X2); assay: O-phosphoserine sulfhydrylase (OPSS) activity, cysteine formation (Gaitonde method), kinetic parameters of purified enzyme; assay type: biochemical, Mycolicibacterium smegmatis (strain ATCC 700084 / mc(2)155)
[2] = tested on: O-phosphoserine sulfhydrylase from Dethiobacter alkaliphilus (OPSSdal), SEQ ID NO: 106; assay: as above; assay type: biochemical, Dethiobacter alkaliphilus AHT 1
Experimental: This reaction solution, except the enzymes, were incubated at 30°C for 10 min. After then, 0.5 to 1 µg of purified OPSS was added to the reaction solution, incubated at 30°C. 100 µl of the enzyme reaction solutions were taken after 5 min, 10 min, 15 min and mixed with 50 µl cold 1.5 M TCA to stop the enzymatic reaction. The cysteine concentrations in the enzyme reaction solution were quantified by measuring absorbance at OD560 nm according to Gaitonde method (Gaitonde,M.K. (1967), Biochem. J. 104, 627-633).
Kinetic parameters were determined using Sigmaplot.

[3] = target: O-phosphoserine sulfhydrylase from Geobacter sulfurreducens (OPSSgsu), SEQ ID NO: 2 (Geobacter sulfurreducens, UniProt Q747V7); assay: as above; assay type: biochemical; details: pH 7.5, 30°C; read-out: Km (Na2S)
[4] = target: O-phosphoserine sulfhydrylase from Rhodothermus marinus (OPSSrma), SEQ ID NO: 4 (Rhodothermus marinus, UniProt D0MJA5); assay: as above; assay type: biochemical, Rhodothermus marinus (strain ATCC 43812 / DSM 4252 / R-10); details: pH 7.5, 30°C; read-out: Km (Na2S)
[5] = substrate: N[C@@H](COP(=O)(O)O)C(=O)O; assay: purified protein, by the assay type; details: fixed Na2S 50 mM, O-phosphoserine 0.5-100 mM, 100 mM Hepes pH 7.5, 30°C

O-phosphoserine sulfhydrylase from Mycolicibacterium smegmatis (OPSSmsm), SEQ ID NO: 104, sequence (A0R1X2 1-323): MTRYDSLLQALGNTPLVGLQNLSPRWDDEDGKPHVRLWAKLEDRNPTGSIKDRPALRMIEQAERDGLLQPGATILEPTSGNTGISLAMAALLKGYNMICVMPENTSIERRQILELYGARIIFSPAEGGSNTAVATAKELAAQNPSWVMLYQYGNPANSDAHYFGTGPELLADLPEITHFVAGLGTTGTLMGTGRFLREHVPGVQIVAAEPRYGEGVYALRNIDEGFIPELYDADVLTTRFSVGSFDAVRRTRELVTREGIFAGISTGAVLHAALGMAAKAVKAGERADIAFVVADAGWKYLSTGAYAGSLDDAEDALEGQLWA

## N[C@@H](COP(=O)(O)O)C(=O)O [OPS, O-phosphoserine]
[1]; read-out: activity lost (inhibition by O-Phosphoserine)
  inhibition at 20000 µM: 50%
[2]; calculated from the O-phosphoserine saturation curves, Na2S 50 mM, pH 7.5, 30°C
  kcat: 19 s⁻¹
[2]; read-out: Km (OPS), fixed Na2S 50 mM, O-phosphoserine 0.5-100 mM, 100 mM Hepes pH 7.5, 30°C
  Km: 17 mM

## Na2S
[1]; pH 7.5, 30°C, read-out: Km (Na2S)
  Km: 1.4 mM
[3]
  Km: 16 mM
[4]
  Km: 13 mM

B1: O-phosphoserine sulfhydrylase from Rhodothermus marinus (OPSSrma), SEQ ID NO: 4 (Rhodothermus marinus DSM 4252) (protein)
chain: MFAETLQTTTNTRPLSGTELIRAIGHTPLIRLRRVARHLPETVAVYVKAEHLNPGGSVKDRPALRMVLEGLRSGALREGRALIDATSGNTGIAYAMLGAALGFPVTLAMPANASPERKRILKAYGAELILTDPMEGTDGAQRYVRELVQQEPDRYFYPDQYNNDANWRAHYEGTGIEILEQTGGRVTHFVAGLGTTGTFVGVSRRLKAHNPAIRCYALQPDSPLHGLEGLKHLETAIVPGIYDPSLVDEHLSCSTEEAFEMTRRLAREEGLFVGPSSGANVAAALHIAEQLDRGVVVTVLCDTGARYLSEPFWEETP
[5]; other: OPSSrma
  Km: 6 mM
  kcat: 47 s⁻¹

B2: O-phosphoserine sulfhydrylase from Geobacter sulfurreducens (OPSSgsu), SEQ ID NO: 2 (Geobacter sulfurreducens PCA) (protein)
chain: MEHPPFSLAGSIGATPLVELRHLNPNPRVRILAKLEGNNVGGSVKDRPALYMLAKAEESGELVPEKTILEPTSGNTGIALAMLGTVKGYRVKLVMPACVSLERRAVLEAYGAELVLSPHDEATDGAIRLAHRILEEEPDRYYMPNQYANPNNPLAHYETTAPEIFRDTGGAVDFFVAGMGTGGTLMGTSRYFREKKPSVRIVGVEPRLGHKVQGLKNMQEAIVPPIYHPEALDLKLTVHDEPAFDTARELAAREGLFVGMSSGAAVAGAVQVARDAPAGSTIVVLLPDRGDRYLSTVLFRSVCGKCPP
[5]; other: OPSSgsu
  Km: 16 mM
  kcat: 58 s⁻¹
